This assay concerns the target Human CD38 (Homo sapiens (Human), UniProt P28907). Kind of assay: CD38 enzyme assay. Format: biochemical. As to conditions: 2 nM CD38, NAD+ substrate, absorbance at 405 nm. The source says:
[formula] where SUBcmpd is the subtracted value for the individual compound treated well, SUBmin is the average of the subtracted values of the 4-(((1r,4r)-4-(2-methoxyethoxy)cyclohexyl)amino)-1-methyl-6-(thiazol-5-yl)quinolin-2(1H)-one positive control wells and SUBmax is the average of the subtracted values of the DMSO negative control wells.
The % inhibition values were plotted as a function of compound concentration and the following 4-parameter fit was applied to derive the IC50 values:
[formula] where top and bottom are normally allowed to float, but may be fixed at 100 or 0 respectively in a 3-parameter fit. The Hill Coefficient is normally allowed to float but may also be fixed at 1 in a 3-parameter fit. Y is the % inhibition and X is the compound concentration.
Human CD38, sequence (P28907 whole entry): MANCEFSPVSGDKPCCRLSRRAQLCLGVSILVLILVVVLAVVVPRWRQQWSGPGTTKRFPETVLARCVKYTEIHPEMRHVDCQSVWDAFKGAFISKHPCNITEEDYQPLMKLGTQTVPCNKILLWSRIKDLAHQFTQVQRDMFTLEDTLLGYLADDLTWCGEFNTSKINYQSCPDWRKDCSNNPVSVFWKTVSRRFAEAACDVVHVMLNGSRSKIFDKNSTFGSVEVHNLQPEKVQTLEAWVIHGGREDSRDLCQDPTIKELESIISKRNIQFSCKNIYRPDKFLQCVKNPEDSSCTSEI
Turning to `O=C(N[C@H]1CCCOC1)c1nc(-n2ccnc2)nc2cc[nH]c12` (single isomer, unassigned) [Example 28a], the IC50 (usually the concentration at which inhibition is half-maximal) was 10 to 100 nM.
As to `O=C(N[C@@H]1CCCOC1)c1nc(-n2ccnc2)nc2cc[nH]c12` (single isomer, unassigned) [Example 28b], the IC50 was below 10 nM.
For `CC(C)[C@@H](O)CO[C@H]1CC[C@H](NC(=O)c2nc(-n3ccnc3)nc3cc[nH]c23)CC1` (single isomer, unassigned) [Example 119a] the value was 10 to 100 nM; for `CC(C)[C@H](O)CO[C@H]1CC[C@H](NC(=O)c2nc(-n3ccnc3)nc3cc[nH]c23)CC1` (single isomer, unassigned) [Example 119b], 10 to 100 nM; for `C[C@@H](O)CO[C@H]1CC[C@H](NC(=O)c2nc(-n3ccnc3)nc3cc[nH]c23)CC1` (single isomer, unassigned) [Example 125a], 10 to 100 nM.
With `CC(C)[C@@](C)(O)CO[C@H]1CC[C@H](NC(=O)c2nc(-n3ccnc3)nc3cc[nH]c23)CC1` (single isomer, unassigned) [Example 126a], the IC50 was in the range of 10 to 100 nM.
For `C[C@@](O)(C(=O)N[C@H]1CC[C@H](NC(=O)c2nc(-n3ccnc3)nc3cc[nH]c23)CC1)C(F)(F)F` (single isomer, unassigned) [Example 127a] the value was 10 to 100 nM; for `C[C@H](O)CO[C@H]1CC[C@H](NC(=O)c2nc(-n3ccnc3)cc3cn[nH]c23)CC1` (single isomer, unassigned) [Example 207], 10 to 100 nM; for `C[C@@H](O)CO[C@H]1CC[C@H](NC(=O)c2nc(-n3ccnc3)cc3cn[nH]c23)CC1` (single isomer, unassigned) [Example 208], 10 to 100 nM.
`C[C@@H](O)[C@H]1CC[C@H](NC(=O)c2nc(-n3ccnc3)nc3ccsc23)CC1` (single isomer, unassigned) [Example 267a] came in with an IC50 below 10 nM.
For `C[C@H](O)[C@H]1CC[C@H](NC(=O)c2nc(-n3ccnc3)nc3ccsc23)CC1` (single isomer, unassigned) [Example 267b] the value was 10 to 100 nM.
In turn, `COCCO[C@H]1CC[C@H](NC(=O)c2cc(-n3ccnc3)cc3nc[nH]c23)CC1` [Example 1, 5-(1H-Imidazol-1-yl)-N-((1r,4r)-4-(2-methoxyethoxy)cyclohexyl)-1H-benzo[d]imidazole-7-carboxamide] returned a half-maximal inhibitory concentration (IC50) of 100 to 1000 nM.
For `O=C(NCc1c(F)cccc1C(F)(F)F)c1cc(-n2ccnc2)cc2nc[nH]c12` [Example 2, N-(2-Fluoro-6-(trifluoromethyl)benzyl)-5-(1H-imidazol-1-yl)-1H-benzo[d]imidazole-7-carboxamide] the value was above 1000 nM.
For `O=C(NCc1c(F)cccc1C(F)(F)F)c1cc(-c2cncs2)cc2nc[nH]c12` [Example 3, N-[[2-Fluoro-6-(trifluoromethyl)phenyl]methyl]-6-thiazol-5-yl-3H-benzimidazole-4-carboxamide] the value was 100 to 1000 nM; for `COCCO[C@H]1CC[C@H](NC(=O)c2cc(-c3cncs3)cc3nc[nH]c23)CC1` [Example 4, N-((1r,4r)-4-(2-Methoxyethoxy)cyclohexyl)-5-(thiazol-5-yl)-1H-benzo[d]imidazole-7-carboxamide], 100 to 1000 nM; for `O=C(NCc1c(F)cccc1C(F)(F)F)c1cc(-n2ccnc2)cc2cc[nH]c12` [Example 5, N-(2-Fluoro-6-(trifluoromethyl)benzyl)-5-(1H-imidazol-1-yl)-1H-indole-7-carboxamide], 100 to 1000 nM.
With `COCCO[C@H]1CC[C@H](NC(=O)c2cc(-n3ccnc3)cc3cc(C)[nH]c23)CC1` [Example 9, 5-(1H-Imidazol-1-yl)-N-((1r,4r)-4-(2-methoxyethoxy)cyclohexyl)-2-methyl-1H-indole-7-carboxamide] the figure was 100 to 1000 nM; with `COCCO[C@H]1CC[C@H](NC(=O)c2cc(-n3ccnc3)nc3cc[nH]c23)CC1` [Example 10, 5-(1H-imidazol-1-yl)-N-((1r,4r)-4-(2-methoxyethoxy)cyclohexyl)-1H-pyrrolo[3,2-b]pyridine-7-carboxamide], 10 to 100 nM.
As to `Cc1cc2cc(-c3cncs3)cc(C(=O)NCc3c(F)cccc3C(F)(F)F)c2[nH]1` [Example 11, N-(2-Fluoro-6-(trifluoromethyl)benzyl)-2-methyl-5-(thiazol-5-yl)-1H-indole-7-carboxamide], the 50% inhibitory concentration (IC50) lay in the range of 10 to 100 nM.
Turning to `COCCO[C@H]1CC[C@H](NC(=O)c2nc(-n3ccnc3)cc3cc[nH]c23)CC1` [Example 12, 5-(1H-Imidazol-1-yl)-N-((1r,4r)-4-(2-methoxyethoxy)cyclohexyl)-1H-pyrrolo[2,3-c]pyridine-7-carboxamide], the IC50 fell in the range of 10 to 100 nM.
With `COCCO[C@H]1CC[C@H](NC(=O)c2cc(-c3cncs3)cc3nc(C)[nH]c23)CC1` [Example 13, N-((1r,4r)-4-(2-Methoxyethoxy)cyclohexyl)-2-methyl-5-(thiazol-5-yl)-1H-benzo[d]imidazole-7-carboxamide] the figure was 100 to 1000 nM; with `COCCO[C@H]1CC[C@H](NC(=O)c2nc(-n3ccnc3)nc3nc[nH]c23)CC1` [Example 14, 2-(1H-Imidazol-1-yl)-N-((1r,4r)-4-(2-methoxyethoxy)cyclohexyl)-7H-purine-6-carboxamide], 10 to 100 nM.
Turning to `O=C(NCc1c(F)cccc1C(F)(F)F)c1cc(-n2ccnc2)nc2cn[nH]c12` [Example 15, N-(2-Fluoro-6-(trifluoromethyl)benzyl)-5-(1H-imidazol-1-yl)-1H-pyrazolo[4,3-b]pyridine-7-carboxamide], the IC50 was in the range of 100 to 1000 nM.
On to `COCCO[C@H]1CC[C@H](NC(=O)c2nc(-n3ccnc3)cc3cn[nH]c23)CC1` [Example 16, 5-(1H-Imidazol-1-yl)-N-((1r,4r)-4-(2-methoxyethoxy)cyclohexyl)-1H-pyrazolo[3,4-c]pyridine-7-carboxamide], for which the IC50 was 10 to 100 nM.
Compound `COCCO[C@H]1CC[C@H](NC(=O)c2cc(-c3cncs3)nc3cn[nH]c23)CC1` [Example 17, N-((1r,4r)-4-(2-Methoxyethoxy)cyclohexyl)-5-(thiazol-5-yl)-1H-pyrazolo[4,3-b]pyridine-7-carboxamide] had an IC50 of 100 to 1000 nM.
`COCCO[C@H]1CC[C@H](NC(=O)c2nc(-n3ccnc3)nc3ccsc23)CC1` [Example 18, 2-(1H-Imidazol-1-yl)-N-((1r,4r)-4-(2-methoxyethoxy)cyclohexyl)thieno[3,2-d]pyrimidine-4-carboxamide]: the IC50 was in the range of 10 to 100 nM.
For the compound `COCCO[C@H]1CC[C@H](NC(=O)c2cc(-n3ccnc3)cc3cc(CN)[nH]c23)CC1` [Example 19, 2-(Aminomethyl)-5-(1H-imidazol-1-yl)-N-((1r,4r)-4-(2-methoxyethoxy)cyclohexyl)-1H-indole-7-carboxamide], the IC50 fell in the range of 10 to 100 nM.
With `O=C(NCc1c(F)cccc1C(F)(F)F)c1nc(-c2cncs2)nc2ccsc12` [Example 20, N-(2-Fluoro-6-(trifluoromethyl)benzyl)-2-(thiazol-5-yl)thieno [3,2-d]pyrimidine-4-carboxamide] the figure was 100 to 1000 nM.
`COCCO[C@H]1CC[C@H](NC(=O)c2nc(-c3cncs3)cc3cn[nH]c23)CC1` [Example 21, N-((1r,4r)-4-(2-Methoxyethoxy)cyclohexyl)-5-(thiazol-5-yl)-1H-pyrazolo[3,4-c]pyridine-7-carboxamide] registered an IC50 of 100 to 1000 nM.
For `COCCO[C@H]1CC[C@H](NC(=O)c2nc(-n3ccnc3)nc3ccn(C)c23)CC1` [Example 22, 2-(1H-Imidazol-1-yl)-N-((1r,4r)-4-(2-methoxyethoxy)cyclohexyl)-5-methyl-5H-pyrrolo[3,2-d]pyrimidine-4-carboxamide] the value was 10 to 100 nM; for `COCCO[C@H]1CC[C@H](NC(=O)c2nc(-n3ccnc3)nc3cn[nH]c23)CC1` [Example 23, 5-(1H-Imidazol-1-yl)-N-((1r,4r)-4-(2-methoxyethoxy)cyclohexyl)-1H-pyrazolo[4,3-d]pyrimidine-7-carboxamide], 10 to 100 nM.
With `COCCO[C@H]1CC[C@H](NC(=O)c2cc(-n3ccnc3)nc3ccsc23)CC1` [Example 24, 5-(1H-Imidazol-1-yl)-N-((1r,4r)-4-(2-methoxyethoxy)cyclohexyl)thieno[3,2-b]pyridine-7-carboxamide] the figure was 10 to 100 nM.
In turn, `COCCO[C@H]1CC[C@H](NC(=O)c2nc(-n3ccnc3)nc3ncsc23)CC1` [Example 25, 5-(1H-Imidazol-1-yl)-N-((1r,4r)-4-(2-methoxyethoxy)cyclohexyl)thiazolo[4,5-d]pyrimidine-7-carboxamide] showed an IC50 of 100 to 1000 nM.
With `COCCO[C@H]1CC[C@H](NC(=O)c2nc(-n3ccnc3)cc3nc[nH]c23)CC1` [Example 26, 6-(1H-Imidazol-1-yl)-N-((1r,4r)-4-(2-methoxyethoxy)cyclohexyl)-3H-imidazo[4,5-c]pyridine-4-carboxamide], the IC50 was 10 to 100 nM.
For `O=C(NC1CCCOC1)c1nc(-n2ccnc2)nc2cc[nH]c12` (stereo not shown) [Example 27, 2-(1H-Imidazol-1-yl)-N-(tetrahydro-2H-pyran-3-yl)-5H-pyrrolo[3,2-d]pyrimidine-4-carboxamide] the value was below 10 nM; for `COCCO[C@H]1CC[C@H](NC(=O)c2cc(-n3ccnc3)c(F)c3cc[nH]c23)CC1` [Example 29, 4-Fluoro-5-(1H-imidazol-1-yl)-N-((1r,4r)-4-(2-methoxyethoxy)cyclohexyl)-1H-indole-7-carboxamide], 100 to 1000 nM.
For `COCCO[C@H]1CC[C@H](NC(=O)c2cc(-n3ccnc3)cc3nc(C)[nH]c23)CC1` [Example 30, 5-(1H-imidazol-1-yl)-N-((1r,4r)-4-(2-methoxyethoxy)cyclohexyl)-2-methyl-1H-benzo[d]imidazole-7-carboxamide] the value was 100 to 1000 nM.

(Values after US11535621B2, “Heterobicyclic amides as inhibitors of CD38” (Ribon Therapeutics, Inc., priority 2019, dated 2022).)
